Laboratory results published in US10494355B2, “Oxadiazole amine derivative compounds as histone deacetylase 6 inhibitor, and the pharmaceutical composition comprising the same” (Chong Kun Dang Pharmaceutical Corp., priority 2015, dated 2019).

Legend:
human recombinant HDAC1 = target: T1, human recombinant HDAC1 (Homo sapiens, UniProt Q13547); assay: HDAC1 enzyme activity inhibition assay (HDAC Fluorimetric Drug Discovery Kit); type: biochemical; details: human recombinant HDAC1, 10 μM substrate, 30° C. 60 minutes
T1 construct: purchased Enzo Life Science BML-SE456
T1 sequence (Q13547 whole entry): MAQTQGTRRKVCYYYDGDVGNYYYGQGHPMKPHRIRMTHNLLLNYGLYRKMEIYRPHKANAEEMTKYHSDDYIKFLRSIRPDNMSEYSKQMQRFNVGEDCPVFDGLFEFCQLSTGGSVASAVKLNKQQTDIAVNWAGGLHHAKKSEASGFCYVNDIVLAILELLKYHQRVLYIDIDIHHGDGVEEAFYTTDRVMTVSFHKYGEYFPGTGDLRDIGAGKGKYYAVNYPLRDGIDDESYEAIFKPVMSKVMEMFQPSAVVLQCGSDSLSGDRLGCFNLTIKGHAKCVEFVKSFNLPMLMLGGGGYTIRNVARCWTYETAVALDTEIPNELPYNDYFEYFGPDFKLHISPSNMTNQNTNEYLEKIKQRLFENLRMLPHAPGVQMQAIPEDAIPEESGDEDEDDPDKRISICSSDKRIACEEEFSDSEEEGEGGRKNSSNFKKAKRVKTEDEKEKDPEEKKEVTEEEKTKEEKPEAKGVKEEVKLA
Description: (§1) In order to examine the HDAC6 selectivity of the compounds of formula I of the present invention by HDAC1 and HDAC6 enzymatic activity inhibition assays, an experiment was performed using a conventional substance as a control.
(§2) HDAC enzyme activity was measured using a HDAC Fluorimetric Drug Discovery Kit (BML-AK511, 516, Enzo Life Science). For the HDAC1 enzyme activity test, human recombinant HDAC1 (BML-SE456) was used as an enzyme source, and Fluor de Lys®-“SIRT1 (BNL-KI177) was used as a substrate. A 5-fold dilution of the compound was seeded into a 96-well plate, and then 0.3 μg of the enzyme and 10 μM of the substrate were added to each well of the plate and allowed to react at 30° C. for 60 minutes. Then, Fluor de Lys®-Developer II (BML-KI176) was added thereto and allowed to react for 30 minutes, after which the fluorescence value (Ex 360, Em 460) was measured using a multi-plate reader (Flexstation 3, Molecular Device). The HDAC6 enzyme was tested using human recombinant HDAC6 (382180) (Calbiochem) according to the same protocol as the HDAC1 enzyme activity test method. Based on the resulting values, each IC50 value was calculated using GraphPad Prism4.0 program.

human recombinant HDAC6 = target: T2, human recombinant HDAC6 (Homo sapiens, UniProt Q9UBN7); assay: HDAC6 enzyme activity inhibition assay (HDAC Fluorimetric Drug Discovery Kit); type: biochemical; details: 30° C. 60 minutes
T2 construct: purchased Calbiochem 382180
T2 sequence (Q9UBN7 1-1215): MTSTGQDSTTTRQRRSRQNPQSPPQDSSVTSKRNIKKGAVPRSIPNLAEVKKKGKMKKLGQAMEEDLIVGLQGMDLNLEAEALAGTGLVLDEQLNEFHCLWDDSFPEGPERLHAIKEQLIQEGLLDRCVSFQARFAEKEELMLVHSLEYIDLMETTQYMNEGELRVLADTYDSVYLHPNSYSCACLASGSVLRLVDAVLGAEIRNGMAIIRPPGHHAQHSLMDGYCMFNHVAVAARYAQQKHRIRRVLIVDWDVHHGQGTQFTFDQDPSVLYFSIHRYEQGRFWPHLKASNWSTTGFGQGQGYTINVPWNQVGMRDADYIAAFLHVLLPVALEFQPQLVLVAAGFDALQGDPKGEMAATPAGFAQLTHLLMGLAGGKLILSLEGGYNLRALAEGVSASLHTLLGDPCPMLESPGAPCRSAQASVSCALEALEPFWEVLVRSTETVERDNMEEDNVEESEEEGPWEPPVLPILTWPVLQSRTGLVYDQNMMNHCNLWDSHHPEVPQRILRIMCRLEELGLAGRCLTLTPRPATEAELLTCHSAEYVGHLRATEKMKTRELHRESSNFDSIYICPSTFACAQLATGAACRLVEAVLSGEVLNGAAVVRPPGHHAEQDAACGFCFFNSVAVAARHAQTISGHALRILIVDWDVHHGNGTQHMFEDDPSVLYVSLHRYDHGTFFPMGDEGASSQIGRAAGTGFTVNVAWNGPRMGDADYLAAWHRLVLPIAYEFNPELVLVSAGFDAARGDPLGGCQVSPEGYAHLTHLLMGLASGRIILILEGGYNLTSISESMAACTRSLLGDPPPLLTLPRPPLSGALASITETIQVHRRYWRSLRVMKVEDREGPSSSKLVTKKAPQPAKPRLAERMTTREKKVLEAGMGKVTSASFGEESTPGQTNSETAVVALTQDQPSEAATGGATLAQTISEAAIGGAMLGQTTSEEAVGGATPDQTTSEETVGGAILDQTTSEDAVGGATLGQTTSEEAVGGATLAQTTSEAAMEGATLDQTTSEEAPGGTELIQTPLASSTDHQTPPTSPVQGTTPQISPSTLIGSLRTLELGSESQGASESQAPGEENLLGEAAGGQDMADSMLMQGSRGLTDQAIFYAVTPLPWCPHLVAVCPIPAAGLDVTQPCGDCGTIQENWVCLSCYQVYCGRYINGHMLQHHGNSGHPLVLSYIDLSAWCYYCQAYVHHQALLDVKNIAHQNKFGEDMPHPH
Description: as §1, §2

Row | IC50 (human recombinant HDAC1) [nM] | IC50 (human recombinant HDAC6) [nM] | Compound
1 | > 10000 | 39 | Fc1ccc(C2(Nc3ncc(-c4nnc(C(F)F)o4)cn3)CC2)cc1F [Compound 2058, 5-(5-(difluoromethyl)-1,3,4-oxadiazol-2-yl)-N-(1-(3,4-difluorophenyl)cyclopropyl)pyrimidin-2-amine]
2 | > 10000 | 189 | FC(F)c1nnc(-c2cnc(NC3(c4ccc(N5CCCCC5)cc4)CCC3)nc2)o1 [Compound 2041, 5-(5-(difluoromethyl)-1,3,4-oxadiazol-2-yl)-N-(1-(4-(piperidin-1-yl)phenyl)cyclobutyl)pyrimidin-2-amine]
3 | > 10000 | 58 | FC(F)(F)c1nnc(-c2cnc(NC3(c4ccccn4)CCC3)nc2)o1 [Compound 1641, N-(1-(pyridin-2-yl)cyclobutyl)-5-(5-(trifluoromethyl)-1,3,4-oxadiazol-2-yl)pyrimidin-2-amine]
4 | > 10000 | 30 | FC(F)c1nnc(-c2cnc(NC3(c4ccccc4)CCC3)nc2)o1 [Compound 1559, 5-(5-(difluoromethyl)-1,3,4-oxadiazol-2-yl)-N-(1-phenylcyclobutyl)pyrimidin-2-amine]
5 | > 10000 | 135 | FC(F)c1nnc(-c2cnc(NC3(c4ccccc4)CCCCC3)nc2)o1 [Compound 1581, 5-(5-(difluoromethyl)-1,3,4-oxadiazol-2-yl)-N-(1-phenylcyclohexyl)pyrimidin-2-amine]
6 | > 10000 | 242 | Cc1ccc(C2(Nc3ncc(-c4nnc(C(F)(F)F)o4)cn3)CCC2)cc1 [Compound 1676, N-(1-(p-tolyl)cyclobutyl)-5-(5-(trifluoromethyl)-1,3,4-oxadiazol-2-yl)pyrimidin-2-amine]
7 | > 10000 | 132 | Cc1cccc(C2(Nc3ncc(-c4nnc(C(F)(F)F)o4)cn3)CCC2)c1 [Compound 1674, N-(1-(m-tolyl)cyclobutyl)-5-(5-(trifluoromethyl)-1,3,4-oxadiazol-2-yl)pyrimidin-2-amine]
8 | > 10000 | 32 | Fc1cccc(C2(Nc3ncc(-c4nnc(C(F)F)o4)cn3)CCC2)c1 [Compound 1607, 5-(5-(difluoromethyl)-1,3,4-oxadiazol-2-yl)-N-(1-(3-fluorophenyl)cyclobutyl)pyrimidin-2-amine]
9 | > 10000 | 267 | O=C(OCc1ccccc1)N1CCC(Nc2ncc(-c3nnc(C(F)F)o3)cn2)(c2ccccc2)CC1 [Compound 1677, Benzyl 4-((5-(5-(difluoromethyl)-1,3,4-oxadiazol-2-yl)pyrimidin-2-yl)amino)-4-phenylpiperidine-1-carboxylate]
10 | > 10000 | 29 | FC(F)c1nnc(-c2cnc(NC3(c4ccccc4Cl)CCC3)nc2)o1 [Compound 1614, N-(1-(2-chlorophenyl)cyclobutyl)-5-(5-(difluoromethyl)-1,3,4-oxadiazol-2-yl)pyrimidin-2-amine]
11 | > 10000 | 1960 | FC(F)(F)c1nnc(-c2cnc(NC3(c4ccc(Cl)c(Cl)c4)CCC3)nc2)o1 [Compound 1835, N-(1-(3,4-dichlorophenyl)cyclobutyl)-5-(5-(trifluoromethyl)-1,3,4-oxadiazol-2-yl)pyrimidin-2-amine]
12 | > 10000 | 420 | Fc1ccc(C2(Nc3ncc(-c4nnc(C(F)(F)F)o4)cn3)CC2)cc1F [Compound 1780, N-(1-(3,4-difluorophenyl)cyclopropyl)-5-(5-(trifluoromethyl)-1,3,4-oxadiazol-2-yl)pyrimidin-2-amine]
13 | > 10000 | 225 | FC(F)c1nnc(-c2cnc(NC3(c4ccccc4)CCNCC3)nc2)o1 [Compound 1678, 5-(5-(difluoromethyl)-1,3,4-oxadiazol-2-yl)-N-(4-phenylpiperidin-4-yl)pyrimidin-2-amine]
14 | > 10000 | 277 | FC(F)c1nnc(-c2cnc(NC3(c4ccc(C(F)(F)F)cc4)CCC3)nc2)o1 [Compound 2043, 5-(5-(difluoromethyl)-1,3,4-oxadiazol-2-yl)-N-(1-(4-(trifluoromethyl)phenyl)cyclobutyl)pyrimidin-2-amine]
15 | > 10000 | 48 | FC(F)c1nnc(-c2cnc(NC3(c4ccccc4)CC3)nc2)o1 [Compound 1524, 5-(5-(difluoromethyl)-1,3,4-oxadiazol-2-yl)-N-(1-phenylcyclopropyl)pyrimidin-2-amine]
16 | > 10000 | 62 | FC(F)c1nnc(-c2cnc(NC3(c4cccc(C(F)(F)F)c4)CC3)nc2)o1 [Compound 1740, 5-(5-(difluoromethyl)-1,3,4-oxadiazol-2-yl)-N-(1-(3-(trifluoromethyl)phenyl)cyclopropyl)pyrimidin-2-amine]
17 | > 10000 | 110 | FC(F)c1nnc(-c2cnc(NC3(c4c(Cl)cccc4Cl)CCC3)nc2)o1 [Compound 1838, N-(1-(2,6-dichlorophenyl)cyclobutyl)-5-(5-(difluoromethyl)-1,3,4-oxadiazol-2-yl)pyrimidin-2-amine]
18 | > 10000 | 43 | Fc1cccc(C2(Nc3ncc(-c4nnc(C(F)F)o4)cn3)CCC2)c1F [Compound 1827, 5-(5-(difluoromethyl)-1,3,4-oxadiazol-2-yl)-N-(1-(2,3-difluorophenyl)cyclobutyl)pyrimidin-2-amine]
19 | > 10000 | 1470 | Fc1c(Cl)cccc1C1(Nc2ncc(-c3nnc(C(F)(F)F)o3)cn2)CCC1 [Compound 1966, N-(1-(3-chloro-2-fluorophenyl)cyclobutyl)-5-(5-(trifluoromethyl)-1,3,4-oxadiazol-2-yl)pyrimidin-2-amine]
20 | > 10000 | 44 | COc1cccc(C2(Nc3ncc(-c4nnc(C(F)F)o4)cn3)CCC2)c1 [Compound 1605, 5-(5-(difluoromethyl)-1,3,4-oxadiazol-2-yl)-N-(1-(3-methoxyphenyl)cyclobutyl)pyrimidin-2-amine]
21 | > 10000 | 39 | Fc1cccc(F)c1C1(Nc2ncc(-c3nnc(C(F)F)o3)cn2)CCC1 [Compound 1828, 5-(5-(difluoromethyl)-1,3,4-oxadiazol-2-yl)-N-(1-(2,6-difluorophenyl)cyclobutyl)pyrimidin-2-amine]
22 | > 10000 | 2520 | FC(F)(F)c1nnc(-c2cnc(NC3(c4ccc(Cl)cc4Cl)CCC3)nc2)o1 [Compound 1837, N-(1-(2,4-dichlorophenyl)cyclobutyl)-5-(5-(trifluoromethyl)-1,3,4-oxadiazol-2-yl)pyrimidin-2-amine]
23 | > 10000 | 83 | FC(F)c1nnc(-c2cnc(NC3(c4ccc5c(c4)OCO5)CCC3)nc2)o1 [Compound 1820, N-(1-(benzo[d][1,3]dioxol-5-yl)cyclobutyl)-5-(5-(difluoromethyl)-1,3,4-oxadiazol-2-yl)pyrimidin-2-amine]
24 | > 10000 | 120 | Fc1cc(F)c(C2(Nc3ncc(-c4nnc(C(F)F)o4)cn3)CCC2)cc1F [Compound 1826, 5-(5-(difluoromethyl)-1,3,4-oxadiazol-2-yl)-N-(1-(2,4,5-trifluorophenyl)cyclobutyl)pyrimidin-2-amine]
25 |  | 134 | Fc1ccc(C2(Nc3ncc(-c4nnc(C(F)F)o4)cn3)CC2)cc1F [Compound 1779, 5-(5-(difluoromethyl)-1,3,4-oxadiazol-2-yl)-N-(1-(3,4-difluorophenyl)cyclopropyl)pyrimidin-2-amine]
